# pIC50: −log10 of the molar value. Active and inactive are the calls of the source. No cut-off for these calls is given here.
# Assays:
# [1] = Cytotoxicity against HUVEC assessed as inhibition of cell growth incubated for 70 hrs by CCK-8 assay; assay type: toxicity, cell-based; settings: human, HUVEC cells
# [2] = system: HL-60; experiment: Induction of NO release in human HL-60 cells at 100 uM incubated for 12 hrs by griess reagent based colorimetric assay; assay type: functional, cell-based
# [3] = system: MCF7; experiment: Antiproliferative activity against human MCF7 cells assessed as inhibition of cell growth incubated for 70 hrs by CCK-8 assay; assay type: functional, cell-based; settings: MCF7, 70 h
# [4] = system: HL-60; experiment: Antiproliferative activity against human HL-60 cells assessed as inhibition of cell growth incubated for 70 hrs by CCK-8 assay; assay type: functional, cell-based; settings: HL-60, 70 h
# [5] = system: HepG2; experiment: Antiproliferative activity against human HepG2 cells assessed as inhibition of cell growth incubated for 70 hrs by CCK-8 assay; assay type: functional, cell-based; settings: HepG2, 70 h
# [6] = target: Serine/threonine-protein kinase mTOR (Homo sapiens, UniProt P42345); experiment: Inhibition of mTOR (unknown origin) using Ulight-4E-BP1 peptide as substrate incubated for 45 mins in presence of ATP by Lance Ultra assay
# [7] = system: mTORC1 (Homo sapiens); experiment: Inhibition of mTORC1 in human HL-60 cells assessed as reduction in S6 phosphorylation at Ser235/236 residue incubated for 24 hrs by Western blot assay; settings: dose 20-160 nM
# [8] = system: mTORC2 (Homo sapiens); experiment: Inhibition of mTORC2 in human HL-60 cells assessed as reduction in Akt phosphorylation at S473 residue incubated for 24 hrs by Western blot assay; settings: dose 20-160 nM
pIC50 [3],pIC50 [4],pIC50 [5],pIC50 [6],inhibition [7],inhibition [8],Structure (SMILES),IC50 at 70 h [1] [nM],Activity [2]
5.29,5.46,5.00,8.38,,,Nc1nc2cc(-c3nn(CCCC(=O)NCCCOc4no[n+]([O-])c4S(=O)(=O)c4ccccc4)c4ncnc(N)c34)ccc2o1,> 10000,Active
< 5.00,5.13,< 5.00,8.01,,,Nc1nc2cc(-c3nn(CCCC(=O)OCCCO[N+](=O)[O-])c4ncnc(N)c34)ccc2o1,> 10000,Active
,,,7.35,,,Nc1nc2cc(-c3nn(CCCC(=O)OCc4ccccc4OCc4c(-c5ccccc5)no[n+]4[O-])c4ncnc(N)c34)ccc2o1,,
,,,6.47,,,Nc1nc2cc(-c3nn(CCCC(=O)OCc4cccc(OCc5c(-c6ccccc6)no[n+]5[O-])c4)c4ncnc(N)c34)ccc2o1,,
,,,7.89,,,Nc1nc2cc(-c3nn(CCCC(=O)OCCCCO[N+](=O)[O-])c4ncnc(N)c34)ccc2o1,,
,,,7.96,,,Nc1nc2cc(-c3nn(CCCC(=O)OCCCCCCOc4no[n+]([O-])c4S(=O)(=O)c4ccccc4)c4ncnc(N)c34)ccc2o1,,
5.91,6.80,5.76,,,,CC(C)n1nc(-c2ccc3oc(N)nc3c2)c2c(N)ncnc21 [SAPANISERTIB],> 10000,inactive
5.86,6.28,5.84,8.15,,,Nc1nc2cc(-c3nn(CCCC(=O)OCCOCCOc4no[n+]([O-])c4S(=O)(=O)c4ccccc4)c4ncnc(N)c34)ccc2o1,> 10000,Active
< 5.00,5.19,< 5.00,8.22,,,CC(COc1no[n+]([O-])c1S(=O)(=O)c1ccccc1)NC(=O)CCCn1nc(-c2ccc3oc(N)nc3c2)c2c(N)ncnc21 (stereo unspecified),9590,Active
< 5.00,< 5.00,< 5.00,8.02,,,Nc1nc2cc(-c3nn(CCCC(=O)OCCO[N+](=O)[O-])c4ncnc(N)c34)ccc2o1,> 10000,
5.62,7.05,5.88,8.19,,,Nc1nc2cc(-c3nn(CCCC(=O)OCCCOc4no[n+]([O-])c4S(=O)(=O)c4ccccc4)c4ncnc(N)c34)ccc2o1,9370,Active
5.21,5.69,< 5.00,8.10,,,Nc1nc2cc(-c3nn(CCCC(=O)NCCOc4no[n+]([O-])c4S(=O)(=O)c4ccccc4)c4ncnc(N)c34)ccc2o1,> 10000,Active
,,,7.90,,,Nc1nc2cc(-c3nn(CCCC(=O)OCCCCCO[N+](=O)[O-])c4ncnc(N)c34)ccc2o1,,
,,,< 6.00,,,Nc1nc2cc(-c3nn(CCCC(=O)OCc4ccc(OCc5c(-c6ccccc6)no[n+]5[O-])cc4)c4ncnc(N)c34)ccc2o1,,
,,,< 6.00,,,Nc1nc2cc(-c3nn(CCCC(=O)OCCc4ccc(OCc5c(-c6ccccc6)no[n+]5[O-])cc4)c4ncnc(N)c34)ccc2o1,,
,,,7.70,,,Nc1nc2cc(-c3nn(CCCC(=O)OCCCCCCO[N+](=O)[O-])c4ncnc(N)c34)ccc2o1,,
6.21,7.15,5.83,8.17,,,Nc1nc2cc(-c3nn(CCCC(=O)OCCCCOc4no[n+]([O-])c4S(=O)(=O)c4ccccc4)c4ncnc(N)c34)ccc2o1,> 10000,Active
5.57,7.10,5.98,8.48,,,Nc1nc2cc(-c3nn(CCCC(=O)OCCOc4no[n+]([O-])c4S(=O)(=O)c4ccccc4)c4ncnc(N)c34)ccc2o1,8940,Active
< 5.00,5.11,< 5.00,7.88,,,Nc1nc2cc(-c3nn(CCCC(=O)OCc4c(-c5ccccc5)no[n+]4[O-])c4ncnc(N)c34)ccc2o1,> 10000,Active
6.06,7.70,6.62,8.44,Dose-Dependent Effect,Dose-Dependent Effect,Nc1nc2cc(-c3nn(CCCC(=O)OCC#CCOc4no[n+]([O-])c4S(=O)(=O)c4ccccc4)c4ncnc(N)c34)ccc2o1,> 10000,Active
5.57,6.80,5.84,8.02,,,Nc1nc2cc(-c3nn(CCCC(=O)OCCCCCOc4no[n+]([O-])c4S(=O)(=O)c4ccccc4)c4ncnc(N)c34)ccc2o1,> 10000,Active

# From ChEMBL document CHEMBL5370564, “Discovery of novel hybrids of mTOR inhibitor and NO donor as potential anti-tumor therapeutics” (Bioorg Med Chem, 2023)
